Reference: PubChem BioAssay (NCI)
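Step 1: Grow cells in 96-well plates. Step 2: Expose to compound for 48 hours at 5 concentrations. Step 3: Interpolate endpoints linearly; if unreached, use highest concentration. Abbreviation: GI50, concentration required for 50% inhibition of growth. TGI marks complete inhibition of growth.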

Legend:
Test in all cases: DTP human tumour cell line panel, 48 h
T-47D breast = system: T-47D breast
IGROV1 ovarian = system: IGROV1 ovarian
MALME-3M melanoma = system: MALME-3M melanoma
SF-268 CNS = system: SF-268 CNS
SN12C renal = system: SN12C renal
HCC-2998 colon = system: HCC-2998 colon
UO-31 renal = system: UO-31 renal
MDA-MB-435 = system: MDA-MB-435
HCT-15 colon = system: HCT-15 colon
SF-539 CNS = system: SF-539 CNS
PC-3 prostate = system: PC-3 prostate
BT-549 breast = system: BT-549 breast
MDA-MB-231 breast = system: MDA-MB-231 breast
DU-145 prostate = system: DU-145 prostate
NCI/ADR-RES ovarian = system: NCI/ADR-RES ovarian
SW-620 colon = system: SW-620 colon
HS 578T breast = system: HS 578T breast
HOP-92 NSCLC = system: HOP-92 NSCLC
HT29 colon = system: HT29 colon
786-0 renal = system: 786-0 renal
A498 renal = system: A498 renal
OVCAR-4 ovarian = system: OVCAR-4 ovarian
NCI-H226 lung = system: NCI-H226 lung
UACC-62 melanoma = system: UACC-62 melanoma
RXF 393 renal = system: RXF 393 renal
MOLT-4 leukemia = system: MOLT-4 leukemia
KM12 colon = system: KM12 colon
SK-MEL-5 melanoma = system: SK-MEL-5 melanoma
HCT-116 colon = system: HCT-116 colon
SK-OV-3 ovarian = system: SK-OV-3 ovarian
CAKI-1 renal = system: CAKI-1 renal
SK-MEL-28 melanoma = system: SK-MEL-28 melanoma
UACC-257 melanoma = system: UACC-257 melanoma
NCI-H23 lung = system: NCI-H23 lung
ACHN renal = system: ACHN renal
OVCAR-8 ovarian = system: OVCAR-8 ovarian
OVCAR-3 ovarian = system: OVCAR-3 ovarian
SF-295 CNS = system: SF-295 CNS
SNB-75 CNS = system: SNB-75 CNS
HL-60(TB) leukemia = system: HL-60(TB) leukemia
OVCAR-5 ovarian = system: OVCAR-5 ovarian

In the case of NCCOCCOCCNc1nc(-c2ccc(Cl)cc2)nc(N2CCN(c3ccccn3)CC2)n1, the GI50 (T-47D breast) is reported as 3.09 µM, the TGI (T-47D breast) is reported as 9.94 µM and the GI50 (IGROV1 ovarian) is reported as 2.81 µM. The TGI (IGROV1 ovarian) was 7.04 µM, the GI50 (MALME-3M melanoma) was 2.18 µM and the TGI (MALME-3M melanoma) was 4.18 µM. It also gave a GI50 (SF-268 CNS) of 3.24 µM, a TGI (SF-268 CNS) of 12.9 µM and a GI50 (SN12C renal) of 6.17 µM. The TGI (SN12C renal) was 20.8 µM, the GI50 (HCC-2998 colon) was 1.75 µM and the TGI (HCC-2998 colon) was 3.29 µM. The GI50 (UO-31 renal) was 2.07 µM, the TGI (UO-31 renal) was 5.02 µM and the GI50 (MDA-MB-435) was 1.78 µM. For the same compound, the TGI (MDA-MB-435) was 3.49 µM, the GI50 (HCT-15 colon) was 1.87 µM and the TGI (HCT-15 colon) was 3.85 µM. For the same compound, the GI50 (SF-539 CNS) was 2.41 µM, the TGI (SF-539 CNS) was 5.18 µM and the GI50 (PC-3 prostate) was 1.89 µM. For the same compound, the TGI (PC-3 prostate) was 3.92 µM, the GI50 (BT-549 breast) was 4.48 µM and the TGI (BT-549 breast) was 21.2 µM. For the same compound, the GI50 (MDA-MB-231 breast) was 2.55 µM, the TGI (MDA-MB-231 breast) was 6.01 µM and the GI50 (DU-145 prostate) was 2.17 µM. The TGI (DU-145 prostate) was 4.51 µM, the GI50 (NCI/ADR-RES ovarian) was 3.66 µM and the TGI (NCI/ADR-RES ovarian) was 16 µM. For the same compound, the GI50 (SW-620 colon) was 1.75 µM, the TGI (SW-620 colon) was 3.35 µM and the GI50 (HS 578T breast) was 1.92 µM. For the same compound, the TGI (HS 578T breast) was 4.6 µM, the GI50 (HOP-92 NSCLC) was 2.36 µM and the TGI (HOP-92 NSCLC) was 7.57 µM. It also gave a GI50 (HT29 colon) of 1.85 µM, a TGI (HT29 colon) of 3.78 µM and a GI50 (786-0 renal) of 1.83 µM. For the same compound, the TGI (786-0 renal) was 3.61 µM, the GI50 (A498 renal) was 1.33 µM and the TGI (A498 renal) was 7.71 µM. The GI50 (OVCAR-4 ovarian) was 2.78 µM, the TGI (OVCAR-4 ovarian) was 10.5 µM and the GI50 (NCI-H226 lung) was 13.7 µM. For the same compound, the TGI (NCI-H226 lung) was 39.9 µM, the GI50 (UACC-62 melanoma) was 1.99 µM and the TGI (UACC-62 melanoma) was 3.91 µM. For the same compound, the GI50 (RXF 393 renal) was 2.28 µM, the TGI (RXF 393 renal) was 5.76 µM and the GI50 (MOLT-4 leukemia) was 1.99 µM. It also gave a TGI (MOLT-4 leukemia) of 3.85 µM, a GI50 (KM12 colon) of 1.84 µM and a TGI (KM12 colon) of 3.5 µM. The GI50 (SK-MEL-5 melanoma) was 1.71 µM, the TGI (SK-MEL-5 melanoma) was 3.19 µM and the GI50 (HCT-116 colon) was 1.75 µM. The TGI (HCT-116 colon) was 3.22 µM, the GI50 (SK-OV-3 ovarian) was 2.67 µM and the TGI (SK-OV-3 ovarian) was 6.28 µM. The GI50 (CAKI-1 renal) was 2.01 µM, the TGI (CAKI-1 renal) was 5.24 µM and the GI50 (SK-MEL-28 melanoma) was 1.74 µM. For the same compound, the TGI (SK-MEL-28 melanoma) was 3.23 µM, the GI50 (UACC-257 melanoma) was 1.87 µM and the TGI (UACC-257 melanoma) was 3.55 µM. For the same compound, the GI50 (NCI-H23 lung) was 1.86 µM, the TGI (NCI-H23 lung) was 3.83 µM and the GI50 (ACHN renal) was 2.48 µM. The TGI (ACHN renal) was 6.43 µM, the GI50 (OVCAR-8 ovarian) was 4.06 µM and the TGI (OVCAR-8 ovarian) was 30.6 µM. The GI50 (OVCAR-3 ovarian) was 2.74 µM, the TGI (OVCAR-3 ovarian) was 6.76 µM and the GI50 (SF-295 CNS) was 2.35 µM. The TGI (SF-295 CNS) was 6.46 µM, the GI50 (SNB-75 CNS) was 2.32 µM and the TGI (SNB-75 CNS) was 7.45 µM. For the same compound, the GI50 (HL-60(TB) leukemia) was 2.12 µM, the TGI (HL-60(TB) leukemia) was 4.15 µM and the GI50 (OVCAR-5 ovarian) was 2.32 µM. The TGI (OVCAR-5 ovarian) was 5.11 µM.
